Results taken from PMC6290777, “Inhalation of the prodrug PI3K inhibitor CL27c improves lung function in asthma and fibrosis” (Nature Communications, 2018).

Experiments:
[1] = tested on: Akt phosphorylation (Ser473) in lung, heart, liver; assay: Insulin stimulation analysis in liver, heart, and lung (pAkt); assay type: in vivo, mice; conditions: inhaled CL27c 2 mg/ml 30 min; insulin 1 UI/kg i.p.
Protocol: Animals were fasted overnight and, the day after, they were treated for 30 min with aerosolized CL27c (2 mg/ml in 0.5 % tylaxopol/saline solution). After 1 h from the CL27c treatment mice were administrated with insulin (1.0 UI kg^−1 diluted in PBS solution, Actrapid, Novo Nordisk, i.p. injection). Ten min after injection, the animals where sacrificed and tissues removed, frozen in liquid nitrogen, and homogenized in lysis buffer (50 mM Tris-HCl, pH = 8, 150 mM NaCl, 1% Triton X-100) supplemented with 50 mM NaF, 2 mM sodium orthovanadate, 1 mM sodium pyro-phosphate, and protease inhibitor cocktail (Roche).
Lung, liver, and heart samples were collected for western blot detection of akt phosphorilation levels. Protein samples were resolved by 10% SDS-PAGE and transferred on to PVDF (Immobilon™-P) membranes. The membranes were blocked with 5% BSA in 1x TBS with 0.3% Tween 20 for 30 min at […]. Then, the membranes were incubated overnight at 4 °C with primary antibodies (phosphorylated Akt serine 473, 1:1000, Cell Signaling Technology, Cat. Number 4060) and 1 h with HRP-conjugated secondary antibody (1:10000). […] For quantification, specific phosphorylation was calculated as the ratio of signals for phosphorylated Akt to the signal of total Akt detected. […]

[2] = Microsomial stability, rat; assay type: in vitro ADME; conditions: rat liver microsomes, NADPH
Protocol: To define whether this prodrug was suitable for inhaled administration, CL27c was studied to evaluate selected ADME (absorption, distribution, metabolism, and excretion) and pharmacokinetic properties. First, stability of CL27c and CL27e was analyzed in mouse plasma (Supplementary Table 1) and in mouse, rat, and human liver microsomes in the presence of nicotinamide adenine dinucleotide phosphate (NADPH; Supplementary Table 2). Next, clearance of CL27c was analyzed in C57BL/6J mice after either intra-venous or oral administration. […] Clearance of CL27c and CL27e after oral administration could not be determined due to their low bioavailability (Supplementary Table 3). Next, pharmacokinetics after inhalation was studied in C57BL/6J mice after delivering an aerosolized micro-suspension of CL27c. As shown in Table 1 and Supplementary Fig. 1b, CL27c dose-dependently reached the lungs and its metabolite CL27e was detectable after inhalation of the highest dose. […] Therefore, the inhaled prodrug promotes local effects but prevents systemic absorption of pharmacologically relevant amounts of the active compound. […]
All tests for the microsomial stability of CL27c were conducted by the Istituto di Ricerche Biomediche (RBM) SpA – Merck Serono, Ivrea, Italy. […]
Then, cells […]
pretreated with different doses of CL27c were incubated at 37°C and 5% CO 2 for 10 minutes. […]

[3] = tested on: Akt phosphorylation (Ser473) in bone marrow-derived macrophages (BMDM); assay: Akt phosphorylation in BMDM stimulated with C5a; assay type: cell-based, mouse; conditions: C5a 25 nM
Protocol: BMDMs were obtained from bone marrows isolated from femurs and tibias of C57BL/6J mice. Bone marrow cells were cultured in a petri plate in the presence of RPMI additioned with 30% L-cell conditioned medium (supernatant of 5 days culture of L929 cells), 20% FBS and 100 μg/ml penicillin and streptomycin. After about 7 days, almost all cells became attached BMDM. BMDM were pretreated with Versene (GIBCO^TM #15040066) to detach them from the plate, washed, and placed on a 24 wells culture plate at a density of 2 × 10^5 cell/well in RPMI free medium. After 6 h of starvation, BMDMs were pretreated with CL27c at different concentrations and stimulated with C5a (25 nM, Sigma-Aldrich #SRP4895A) for 5 min. Proteins were extracted with Laemnli buffer.
For all cell types, phosphorylated Akt (P-Akt, Ser 473, 1:100, Cell Signaling Technology #4060) production was detected by western blot analysis and quantified with ChemiDoc™ XRS system. P-Akt signals are normalized on endogenous. For the calculation of EC50 values, a percentage of residual P-Akt was calculated for each inhibitor concentration by using the control vehicle as 100%. To derive the EC50, all data were plotted on a dose response curve (Graph Pad software) and the EC50 was calculated by using the non-linear regression fit (equation [log agonist] vs response–variable slope). […]
panel). […] The respective EC50 was calculated by using nonlinear

For COC(=O)c1cccc(Cn2cc(-c3cccc4c(=O)cc(N5CCOCC5)[nH]c34)nn2)c1 [CL27c], the “insulin-evoked Akt phosphorylation (Ser473) in lungs” value [1] was “did not show elevation of protein kinase B (Akt) phosphorylation”, the “insulin-evoked Akt phosphorylation in heart or liver” value [1] was “insulin was able to normally increase Akt phosphorylation” and the “Clint (intrinsic clearance)” value [2] was 0.2 ± 0.005 ml/min/mg prot. For the same compound, the t1/2 [2] was 5.9 ± 0.1 min and the Akt/PKB phosphorylation [3] was “readily reduced Akt/PKB phosphorylation”.
